One assay deals with Cdk4/CyclinD1 (Homo sapiens (Human), UniProt P11802). Kind of assay: Cdk4 kinase inhibition assay with recombinant Cdk4/CyclinD1, Rb substrate, [33P]-ATP filter plate. In kind it is biochemical. Particulars: 25 μM ATP, read-out: Cdk 4 IC50. The method in brief:
(§1)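 Recombinant Cdk4/CyclinD1 or Cdk6/CyclinD3 phosphorylated Rb protein with [33P]-ATP for 1 h at room temperature. Protein was TCA-precipitated on filter plates and bound radioactivity counted. IC50 by nonlinear regression.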

The target of another assay is Cdk6/CyclinD3 (Homo sapiens (Human), UniProt Q00534). The assay is described as follows: Cdk6 kinase inhibition assay with recombinant Cdk6/CyclinD3, Rb substrate, [33P]-ATP filter plate. In kind it is biochemical. Particulars: 25 μM ATP, read-out: Cdk 6 IC50. The method in brief:
as §1

Cdk6/CyclinD3, sequence (Q00534 whole entry): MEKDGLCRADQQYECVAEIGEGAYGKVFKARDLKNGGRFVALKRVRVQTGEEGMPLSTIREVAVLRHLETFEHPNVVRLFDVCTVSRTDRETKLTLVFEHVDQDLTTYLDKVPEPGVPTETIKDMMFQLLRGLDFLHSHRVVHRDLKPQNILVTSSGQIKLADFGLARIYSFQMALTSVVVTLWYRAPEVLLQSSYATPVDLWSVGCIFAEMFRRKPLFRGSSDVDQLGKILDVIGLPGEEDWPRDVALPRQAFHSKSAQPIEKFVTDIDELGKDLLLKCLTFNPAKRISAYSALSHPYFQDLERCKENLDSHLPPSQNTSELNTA
Cdk6/CyclinD3, sequence (P30281 whole entry partner): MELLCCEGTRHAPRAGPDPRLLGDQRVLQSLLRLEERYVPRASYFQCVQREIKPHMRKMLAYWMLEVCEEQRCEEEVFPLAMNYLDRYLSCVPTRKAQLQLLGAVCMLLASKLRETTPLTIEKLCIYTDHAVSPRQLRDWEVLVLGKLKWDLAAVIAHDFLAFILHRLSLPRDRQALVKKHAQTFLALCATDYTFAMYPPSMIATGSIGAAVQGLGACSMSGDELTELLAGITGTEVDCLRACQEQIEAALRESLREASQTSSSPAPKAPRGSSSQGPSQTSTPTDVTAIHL
Cdk4/CyclinD1, sequence (P11802 whole entry): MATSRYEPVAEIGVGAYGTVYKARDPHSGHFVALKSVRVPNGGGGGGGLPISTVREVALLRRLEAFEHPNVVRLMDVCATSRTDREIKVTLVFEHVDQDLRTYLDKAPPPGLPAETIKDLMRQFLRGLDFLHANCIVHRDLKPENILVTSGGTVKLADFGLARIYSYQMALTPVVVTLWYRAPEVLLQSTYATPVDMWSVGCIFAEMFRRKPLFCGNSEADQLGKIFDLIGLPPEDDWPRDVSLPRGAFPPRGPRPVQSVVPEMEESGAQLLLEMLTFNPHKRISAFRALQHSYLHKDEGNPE
Cdk4/CyclinD1, sequence (P24385 whole entry partner): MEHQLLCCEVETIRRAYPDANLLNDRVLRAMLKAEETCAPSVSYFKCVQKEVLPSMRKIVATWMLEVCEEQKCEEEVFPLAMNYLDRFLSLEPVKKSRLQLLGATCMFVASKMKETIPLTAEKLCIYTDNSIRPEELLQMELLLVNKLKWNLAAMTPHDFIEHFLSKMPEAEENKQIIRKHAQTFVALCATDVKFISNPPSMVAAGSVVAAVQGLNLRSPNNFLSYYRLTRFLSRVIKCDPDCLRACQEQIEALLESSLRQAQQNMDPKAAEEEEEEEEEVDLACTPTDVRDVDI

Broadly, the IC50 is the concentration at which inhibition is half-maximal. Turning to `O=C(c1ccc(Nc2ncc3c4ccncc4n(C4CCCC4)c3n2)nc1)N1CCNCC1` [Example 221, 9-cyclopentyl-N-(5-(1-piperazinylcarbonyl)-2-pyridinyl)-9H-pyrido[4′,3′:4,5]pyrrolo[2,3-d]pyrimidin-2-amine], the IC50 came out at 1.4 nM at Cdk4/CyclinD1 and 8 nM at Cdk6/CyclinD3.

As for `O=C(O)c1ccc(Nc2ncc3c4ccnc(O)c4n(C4CCCC4)c3n2)nc1` [Example 224, 6-((9-cyclopentyl-8-hydroxy-9H-pyrido[4′,3′:4,5]pyrrolo[2,3-d]pyrimidin-2-yl)amino)-3-pyridinecarboxylic acid], the IC50 was 520 nM on Cdk4/CyclinD1 and 860 nM at Cdk6/CyclinD3.

On to `O=C1CN(Cc2ccc(Nc3ncc4c5ccncc5n(C5CCCC5)c4n3)nc2)CCN1` [Example 225, 4-((6-((9-cyclopentyl-9H-pyrido[4′,3′:4,5]pyrrolo[2,3-d]pyrimidin-2-yl)amino)-3-pyridinyl)methyl)-2-piperazinone], for which the IC50 worked out at 4 nM at Cdk4/CyclinD1 and 3 nM on Cdk6/CyclinD3.

For `O=C1CNCCN1Cc1ccc(Nc2ncc3c4ccncc4n(C4CCCC4)c3n2)nc1` [Example 226, 1-((6-((9-cyclopentyl-9H-pyrido[4′,3′:4,5]pyrrolo[2,3-d]pyrimidin-2-yl)amino)-3-pyridinyl)methyl)-2-piperazinone], the IC50 worked out at 3.2 nM at Cdk4/CyclinD1 and 2.7 nM at Cdk6/CyclinD3.

As for `O=S(=O)(c1ccc(Nc2ncc3c4ccncc4n(C4CCCC4)c3n2)nc1)N1CCNCC1` [Example 227, 9-Cyclopentyl-N-(5-(1-piperazinylsulfonyl)-2-pyridinyl)-9H-pyrido[4′,3′:4,5]pyrrolo[2,3-d]pyrimidin-2-amine], the IC50 is 3 nM on Cdk4/CyclinD1 and 3.1 nM at Cdk6/CyclinD3.

Consider `O=S(=O)(c1ccc(Nc2ncc3c4ccnc(F)c4n(C4CCCC4)c3n2)nc1)N1CCNCC1` [Example 228, 9-cyclopentyl-8-fluoro-N-(5-(1-piperazinylsulfonyl)-2-pyridinyl)-9H-pyrido[4′,3′:4,5]pyrrolo[2,3-d]pyrimidin-2-amine], for which the figures for the IC50 at Cdk4/CyclinD1 and at Cdk6/CyclinD3 were 15 nM and 3.9 nM, respectively.

Take `CN(C)C1CCN(S(=O)(=O)c2ccc(Nc3ncc4c5ccncc5n(C5CCCC5)c4n3)nc2)CC1` [Example 229, 9-cyclopentyl-N-(5-((4-(dimethylamino)-1-piperidinyl)sulfonyl)-2-pyridinyl)-9H-pyrido[4′,3′:4,5]pyrrolo[2,3-d]pyrimidin-2-amine]: the IC50 on Cdk4/CyclinD1 is 21.2 nM; at Cdk6/CyclinD3, 20.5 nM.

Take `CN(C)C1CCN(C(=O)c2ccc(Nc3ncc4c5ccncc5n(C5CCCC5)c4n3)nc2)CC1` [Example 230, 9-Cyclopentyl-N-(5-((4-(dimethylamino)-1-piperidinyl)carbonyl)-2-pyridinyl)-9H-pyrido[4′,3′:4,5]pyrrolo[2,3-d]pyrimidin-2-amine]: the IC50 at Cdk4/CyclinD1 and at Cdk6/CyclinD3 was 16 nM each time.

Take `c1cc2c3cnc(Nc4ccc(N5CCNCC5)cn4)cc3n(Cc3ccsc3)c2cn1` [Example 235, N-(5-(1-piperazinyl)-2-pyridinyl)-5-(3-thiophenylmethyl)-5H-pyrido[3′,4′:4,5]pyrrolo[2,3-c]pyridin-3-amine]: the results for the IC50 on Cdk4/CyclinD1 and at Cdk6/CyclinD3 were 125 nM and 257 nM, respectively.

As to `CN(C)C1CCN(c2ccc(Nc3ncc4c5ccnc(F)c5n(C5CCCC5)c4n3)nn2)CC1` [Example 252, 9-Cyclopentyl-N-(6-(4-(dimethylamino)-1-piperidinyl)-3-pyridazinyl)-8-fluoro-9H-pyrido[4′,3′:4,5]pyrrolo[2,3-d]pyrimidin-2-amine], the IC50 at Cdk4/CyclinD1 is 2 nM; on Cdk6/CyclinD3 it was 5 nM.

In the case of `C[C@@H]1CN(c2ccc(Nc3ncc4c5ccnc(F)c5n(C5CCCC5)c4n3)nn2)CCN1` [Example 253, 9-Cyclopentyl-8-fluoro-N-(6-((3R)-3-methyl-1-piperazinyl)-3-pyridazinyl)-9H-pyrido[4′,3′:4,5]pyrrolo[2,3-d]pyrimidin-2-amine], the IC50 worked out at 3.9 nM on Cdk4/CyclinD1 and 27 nM at Cdk6/CyclinD3.

Consider `C1=CCN(c2ccc(Nc3ncc4c5ccncc5n(C5CCCC5)c4n3)nn2)CC1` [Example 254, 9-Cyclopentyl-N-(6-(3,6-dihydro-1(2 H)-pyridinyl)-3-pyridazinyl)-9H-pyrido[4′,3′:4,5]pyrrolo[2,3-d]pyrimidin-2-amine], for which the results for the IC50 on Cdk4/CyclinD1 and at Cdk6/CyclinD3 were 22 nM and 40 nM, respectively.

Take `C1=C(c2ccc(Nc3ncc4c5ccncc5n(C5CCCC5)c4n3)nn2)CCNC1` [Example 255, 9-Cyclopentyl-N-(6-(1,2,3,6-tetrahydro-4-pyridinyl)-3-pyridazinyl)-9H-pyrido[4′,3′:4.5]pyrrolo[2,3-d]pyrimidin-2-amine]: the IC50 on Cdk4/CyclinD1 worked out at 5.6 nM; at Cdk6/CyclinD3 it was 60 nM.

As to `C1=C(c2ccc(Nc3ncc4c5ccncc5n(C5CCCC5)c4n3)nc2)CCNC1` [Example 256, 9-Cyclopentyl-N-(1′,2′,3′,6′-tetrahydro-3,4′-bipyridin-6-yl)-9H-pyrido[4′,3′:4,5]pyrrolo[2,3-d]pyrimidin-2-amine], the values for the IC50 on Cdk4/CyclinD1 and on Cdk6/CyclinD3 were 1.3 nM and 7 nM, respectively.

In the case of `c1cc2c3cnc(Nc4ccc(C5CCNCC5)cn4)nc3n(C3CCCC3)c2cn1` [Example 257, 9-cyclopentyl-N-(5-(4-piperidinyl)-2-pyridinyl)-9H-pyrido[4′,3′:4,5]pyrrolo[2,3-d]pyrimidin-2-amine], the IC50 turned out to be 7 nM on Cdk4/CyclinD1 and 5.3 nM on Cdk6/CyclinD3.

With `c1cc(-c2ccc(Nc3ncc4c5ccncc5n(C5CCCC5)c4n3)nn2)ccn1` [Example 259, 9-cyclopentyl-N-(6-(4-pyridinyl)-3-pyridazinyl)-9H-pyrido[4′,3′:4,5]pyrrolo[2,3-d]pyrimidin-2-amine], the values for the IC50 on Cdk4/CyclinD1 and on Cdk6/CyclinD3 were 49 nM and 101 nM, respectively.

On to `c1cc(-c2ccc(Nc3ncc4c5ccncc5n(C5CCCC5)c4n3)nc2)ccn1` [Example 260, N-3,4′-bipyridin-6-yl-9-cyclopentyl-9H-pyrido[4′,3′:4,5]pyrrolo[2,3-d]pyrimidin-2-amine], for which the IC50 at Cdk4/CyclinD1 was found to be 45 nM; on Cdk6/CyclinD3 it was 60 nM.

Take `COc1ccc(-c2ccc(Nc3ncc4c5ccncc5n(C5CCCC5)c4n3)nn2)cn1` [Example 261, 9-Cyclopentyl-N-(6-(6-methoxy-3-pyridinyl)-3-pyridazinyl)-9H-pyrido[4′,3′:4,5]pyrrolo[2,3-d]pyrimidin-2-amine]: the values for the IC50 on Cdk4/CyclinD1 and on Cdk6/CyclinD3 were 233 nM and 360 nM, respectively.

Turning to `COc1cc(-c2ccc(Nc3ncc4c5ccncc5n(C5CCCC5)c4n3)nn2)ccn1` [Example 262, 9-Cyclopentyl-N-(6-(2-methoxy-4-pyridinyl)-3-pyridazinyl)-9H-pyrido[4′,3′:4,5]pyrrolo[2,3-d]pyrimidin-2-amine], the IC50 on Cdk4/CyclinD1 was determined as 32 nM; on Cdk6/CyclinD3, 38 nM.

In the case of `Oc1cc(-c2ccc(Nc3ncc4c5ccncc5n(C5CCCC5)c4n3)nn2)ccn1` [Example 264, 4-(6-((9-cyclopentyl-9H-pyrido[4′,3′:4,5]pyrrolo[2,3-d]pyrimidin-2-yl)amino)-3-pyridazinyl)-2-pyridinol], the IC50 on Cdk4/CyclinD1 was 9.3 nM; at Cdk6/CyclinD3, 16.6 nM.

For `Oc1ccc(-c2ccc(Nc3ncc4c5ccncc5n(C5CCCC5)c4n3)nn2)cn1` [Example 266, 5-(6-((9-Cyclopentyl-9H-pyrido[4′,3′:4,5]pyrrolo[2,3-d]pyrimidin-2-yl)amino)-3-pyridazinyl)-2-pyridinol], the values for the IC50 on Cdk4/CyclinD1 and at Cdk6/CyclinD3 were 3.1 nM and 6.5 nM, respectively.

Source of the values: patent US8841312B2, “Fused pyridine, pyrimidine and triazine compounds as cell cycle inhibitors” (Amgen Inc., priority 2007, dated 2014).
